Data reported in patent US20230226084A1, “NON-INVASIVE METHOD OF TREATING COVID-19 INFECTION” (priority 2022, published 2023).

Tested on: COVID-19 infection
Format: in vivo
Details: one subject
[1] = confirmed COVID-19, furosemide orally twice daily, 40 mg mornings and 20 mg at 6 hours interval, for 3 days

## NS(=O)(=O)c1cc(C(=O)O)c(NCc2ccco2)cc1Cl [furosemide]
[1]
  Subsidence of symptoms (cough, headache, body ache, fever, breathing difficulties): subsided on the second day
  Total recovery of the subject: totally recovered by night on the third day
After furosemide orally for 3 days
  Infection status per Government hospital certificate, a while after treatment: negative status for the infection
